Tests used:
Format in all cases: in vivo
[1] = tested on: Male ddY strain mice loaded with forced swimming stress; test: Suppressive effect for depressive symptom as a result of stress loading (forced swimming); details: 100 μg/kg body weight intraperitoneally every day, thirteenth day after stress loading, versus PBS control
Protocol: Male ddY strain mice of seven weeks age were loaded, as the stress, with forced swimming of 6 minutes every day for 2 weeks and the evaluation of suppressive effect for depression symptom was conducted. Thus, as from the initiation of loading the stress, the compound 1 dissolved in 0.1% DMSO was intraperitoneally administered every day in a dose of 100 μg/kg body weight and the immobility time of the mice upon the forced swimming was measured (n=5). As a control, a phosphate-buffered physiological saline (PBS) was intraperitoneally administered to the mice during two weeks and the immobility time was measured (n=4). The cases to which no stress was loaded were also administered with each of the compound 1 and the phosphate buffered saline (PBS) as same as in the cases to which the stress was loaded. Incidentally the test of significance was conducted by means of a two-way ANOVA, Bonferroni test.

[2] = tested on: Spinal cord injury model rats; test: Repairing action for the spinal cord injury, BBB scale (complete cut at T10); details: 100 μg/kg body weight intraperitoneally once daily, after six weeks, n=6
Protocol: Spinal cord injury model rats were prepared and the repairing action of the compound 1 for the spinal cord injury was investigated. The compound 1 was dissolved in a phosphate buffered saline (PBS) and intraperitoneally administered to each spinal cord injury model rat once daily in a dose of 100 μg/kg body weight. As a control, PBS was similarly administered.
Female Wistar rats of seven weeks age were anesthetized with pentobarbital (40 mg/kg), the spinal column was exposed, vertebral arch of the ninth thoracic vertebra was excised and the tenth thoracic cord (T10) was completely cut using a sharp knife. After the back muscle and the skin were satured, paralysis of hind limbs was confirmed to prepare spinal cord injury model rats.
For each of the groups administered with the compound 1 and PBS, the improvement in motor function of the spinal cord injury model rats during six weeks was evaluated every day according to a BBB scale (Basso D M, et al., J. Neurotrauma, 12:1-21 (1995)) (0 for immediately after the injury while 21 for non-injury). Incidentally, the test of significance was conducted by a two-way ANOV, Bonferroni test.

[3] = tested on: chronic mild stress-induced depressive model mice; test: Elevated plus maze test in chronic mild stress-induced depressive model mice; details: 1,500 μg/kg orally once daily for three weeks; control 25.37±4.13 seconds
Protocol: The same operation as in the above Test Example 7 was conducted to prepare chronic mild stress-induced depressive model mice (n=8 to 12). During that time, the compound of the present invention dissolved in PBS or in a PBS solvent containing DMSO, etc. was orally administered once daily for three weeks and, after that, the suppressive effect for anxiety symptom was evaluated by means of an elevated plus maze test. Thus, time when the mouse stayed in an open arm of the elevated plus maze and the frequency (motility amount) of coming in and out of the mouse for both open arm and closed arm were measured. When the anxiety symptom was stronger, the staying time in the open arm was shorter. At that time, it is confirmed that there is no difference in the frequencies for coming in and out the arm between the cases where the stress is and is not loaded. Incidentally, the test for significance was carried out by a one-way ANOVA, Tukey's Multiple Comparison Test.

[4] = tested on: chronic mild stress-induced depression model mice; test: Tail suspension test in chronic mild stress-induced depression model mice; details: control 103.18±15.96 seconds
Protocol: Female ddY strain mice of seven weeks age (n=8 to 12) were (A) subjected to forced swimming for 15 minutes and then to normal breeding for two clays, (B) subjected to breeding in an inclined cage for two days and then to normal breeding for one day, (C) subjected to breeding for one day where the floor mat was made wet and then to normal breeding for one day and (D) subjected to breeding for one day using a cage which was rotated at the rate of 180 rotations/minute and then to normal breeding for one clay. Further, (B) to (D) were repeated for two times and stress was loaded for three weeks in total to prepare chronic mild stress-induced depression model mice. During that time, the compound of the present invention dissolved in PBS or in a PBS solvent containing DMSO, etc. was orally administered once daily for three weeks and, after that, the suppressive effect for depressive symptom was evaluated by means of a tail suspension test. Thus, the area which was 1 cm from the tip of the tail of a mouse was grasped with hand and kept at the height of 10 cm from the floor, an observation was conducted for six minutes and the length of immobility time which is an index for the depressive symptom was measured. Incidentally, the test of significance was carried out by a one-way ANOVA, Tukey's Multiple Comparison Test.

[5] = tested on: chronic mild stress-induced depressive model mice; test: Spontaneous alternation behavior test (Y-maze test) in chronic mild stress-induced depressive model mice
Protocol: The same operation as in the above Test Example 7 was conducted to prepare chronic mild stress-induced depressive model mice (n=8 to 12). During that time, the compound of the present invention dissolved in PBS or in a PBS solvent containing DMSO, etc. was orally administered once daily for three weeks and, after that, evaluation for learning and memorizing behaviors was conducted by means of a spontaneous alternation behavior test (Y-maze test). Thus, an animal was placed at the front end of any arm in the Y-maze and allowed to freely walk in the maze for ten minutes, the arms into which the animal entered were successively recorded and the entry numbers of the animal into each arm within a measuring time (total arm entries) and the combined entry numbers into continuously different three arms (alternating behavior numbers) were checked. The alternating behavior rate (%) was calculated by the following expression and the spontaneous alternating behavior was evaluated as an index of short-term memory. Incidentally, the test of significance was conducted by a one-way ANOVA, Tukey's Multiple Comparison Test. Alternating behavior rate (%)=(Alternating behavior numbers)/(Total arm entries−2)×100

## CCCCCCC/C=C/C(=O)OCCN(C)C [Compound 1, (E)-2-(dimethylamino)ethyl dec-2-enoate]
[1]
  immobility time upon forced swimming: significantly shortened the immobility time
[2]
  mean value of BBB scores±SE: 11.60±2.2

## CCCCCCC/C=C/C(=O)OCCN(CC)CC [Compound 6, (E)-2-(diethylamino)ethyl dec-2-enoate]
[3]
  staying time in an open arm (elevated plus maze): 53.57 ± 7.00 s
[4]; 1,500 orally once daily for three weeks
  immobility time (tail suspension test): 80.67 ± 23.94 s
[5]; 300 μg/kg orally once daily for three weeks, control 60.21±2.39%
  alternating behavior rate: 75.40±3.22%

## CCCCCCC/C=C/C(=O)NCCN(C)C [Compound 36, (E)-N-2-(dimethylamino)ethyl dec-2-enamide]
[5]; 1,500 μg/kg orally once daily for three weeks, control 61.76±2.01%
  alternating behavior rate: 71.52±2.50%

## CCCCCCC/C=C/C(=O)SCCN(C)C [Compound 55, (E)-S-2-(dimethylamino)ethyl dec-2-enethioate]
[3]
  staying time in an open arm (elevated plus maze): 47.24 ± 7.52 s
[4]; 1,500 μg/kg orally once daily for three weeks
  immobility time (tail suspension test): 63.72 ± 10.13 s
